In data set [1] the test system is LNCaP C4-2B. The experiment in a line: Antiproliferative activity against human LNCaP C4-2B cells measured after 96 hrs by Cell Titer-Glo assay. In kind it is functional, cell-based. A general note: Cellular ATP, detected with luciferase, serves as a proxy for viable cell number.
For data set [2], the system named is LNCaP. In words: Antiproliferative activity against human LNCaP cells measured after 96 hrs by Cell Titer-Glo assay. The data set is classed as functional, cell-based.
The subject of data set [3] is CWR22R. In words: Antiproliferative activity against human 22Rv1 cells measured after 96 hrs by Cell Titer-Glo assay. In kind it is functional, cell-based. To be noted: 22Rv1, 96 h.
Data set [4] addresses T1, Transcription intermediary factor 1-alpha (Homo sapiens, UniProt O15164).
T1 sequence (O15164 whole entry): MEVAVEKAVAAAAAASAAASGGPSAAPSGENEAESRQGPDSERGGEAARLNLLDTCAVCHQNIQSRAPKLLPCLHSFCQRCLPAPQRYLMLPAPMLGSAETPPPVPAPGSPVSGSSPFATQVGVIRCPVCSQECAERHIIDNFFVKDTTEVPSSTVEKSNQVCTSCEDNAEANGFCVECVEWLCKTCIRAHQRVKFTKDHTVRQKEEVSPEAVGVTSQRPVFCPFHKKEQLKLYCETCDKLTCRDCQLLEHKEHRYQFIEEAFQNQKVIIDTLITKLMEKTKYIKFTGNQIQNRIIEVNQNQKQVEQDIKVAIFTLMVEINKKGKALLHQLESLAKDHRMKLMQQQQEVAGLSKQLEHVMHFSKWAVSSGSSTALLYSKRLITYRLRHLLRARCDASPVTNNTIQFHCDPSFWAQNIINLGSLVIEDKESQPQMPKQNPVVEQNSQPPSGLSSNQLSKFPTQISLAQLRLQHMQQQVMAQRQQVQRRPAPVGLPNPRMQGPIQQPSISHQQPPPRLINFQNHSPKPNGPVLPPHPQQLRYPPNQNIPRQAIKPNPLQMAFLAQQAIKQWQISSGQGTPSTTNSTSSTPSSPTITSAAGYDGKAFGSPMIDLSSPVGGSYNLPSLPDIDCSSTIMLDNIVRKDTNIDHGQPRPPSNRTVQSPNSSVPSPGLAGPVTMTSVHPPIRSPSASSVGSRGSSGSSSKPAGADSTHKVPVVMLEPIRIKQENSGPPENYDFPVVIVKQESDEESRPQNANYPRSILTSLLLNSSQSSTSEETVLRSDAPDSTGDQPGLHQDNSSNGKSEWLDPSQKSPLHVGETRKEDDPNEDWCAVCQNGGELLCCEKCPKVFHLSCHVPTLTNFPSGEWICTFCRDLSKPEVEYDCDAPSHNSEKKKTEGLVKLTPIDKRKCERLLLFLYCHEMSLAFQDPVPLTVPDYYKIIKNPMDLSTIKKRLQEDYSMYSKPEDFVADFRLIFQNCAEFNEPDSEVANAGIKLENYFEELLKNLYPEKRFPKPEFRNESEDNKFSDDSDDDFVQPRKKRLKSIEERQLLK
In words: Inhibition of TRIM24 (unknown origin) measured alphascreen assay.

A short description of data set [5]: Apparent permeability of the compound across basolateral to apical side in human Caco-2 cells at 10 uM incubated for 120 mins and measured by LC-MS/MS analysis. On the technique in general: Passage across Caco-2 layers is used to estimate intestinal permeability.
Data set [6] can be described thus: Efflux ratio of apparent permeability from basolateral to apical side over apical to basolateral side in human Caco-2 cells at 10 uM incubated for 120 mins and measured by LC-MS/MS analysis.
The nature of data set [7]: Apparent permeability of the compound across apical to basolateral side in human Caco-2 cells at 10 uM incubated for 120 mins assessed as drug recovery and measured by LC-MS/MS analysis.
A short description of data set [8]: Apparent permeability of the compound across basolateral to apical side in human Caco-2 cells at 10 uM incubated for 120 mins assessed as drug recovery and measured by LC-MS/MS analysis.
Data set [9] concerns the target T2, Peregrin (Homo sapiens, UniProt P55201).
T2 sequence (P55201 whole entry): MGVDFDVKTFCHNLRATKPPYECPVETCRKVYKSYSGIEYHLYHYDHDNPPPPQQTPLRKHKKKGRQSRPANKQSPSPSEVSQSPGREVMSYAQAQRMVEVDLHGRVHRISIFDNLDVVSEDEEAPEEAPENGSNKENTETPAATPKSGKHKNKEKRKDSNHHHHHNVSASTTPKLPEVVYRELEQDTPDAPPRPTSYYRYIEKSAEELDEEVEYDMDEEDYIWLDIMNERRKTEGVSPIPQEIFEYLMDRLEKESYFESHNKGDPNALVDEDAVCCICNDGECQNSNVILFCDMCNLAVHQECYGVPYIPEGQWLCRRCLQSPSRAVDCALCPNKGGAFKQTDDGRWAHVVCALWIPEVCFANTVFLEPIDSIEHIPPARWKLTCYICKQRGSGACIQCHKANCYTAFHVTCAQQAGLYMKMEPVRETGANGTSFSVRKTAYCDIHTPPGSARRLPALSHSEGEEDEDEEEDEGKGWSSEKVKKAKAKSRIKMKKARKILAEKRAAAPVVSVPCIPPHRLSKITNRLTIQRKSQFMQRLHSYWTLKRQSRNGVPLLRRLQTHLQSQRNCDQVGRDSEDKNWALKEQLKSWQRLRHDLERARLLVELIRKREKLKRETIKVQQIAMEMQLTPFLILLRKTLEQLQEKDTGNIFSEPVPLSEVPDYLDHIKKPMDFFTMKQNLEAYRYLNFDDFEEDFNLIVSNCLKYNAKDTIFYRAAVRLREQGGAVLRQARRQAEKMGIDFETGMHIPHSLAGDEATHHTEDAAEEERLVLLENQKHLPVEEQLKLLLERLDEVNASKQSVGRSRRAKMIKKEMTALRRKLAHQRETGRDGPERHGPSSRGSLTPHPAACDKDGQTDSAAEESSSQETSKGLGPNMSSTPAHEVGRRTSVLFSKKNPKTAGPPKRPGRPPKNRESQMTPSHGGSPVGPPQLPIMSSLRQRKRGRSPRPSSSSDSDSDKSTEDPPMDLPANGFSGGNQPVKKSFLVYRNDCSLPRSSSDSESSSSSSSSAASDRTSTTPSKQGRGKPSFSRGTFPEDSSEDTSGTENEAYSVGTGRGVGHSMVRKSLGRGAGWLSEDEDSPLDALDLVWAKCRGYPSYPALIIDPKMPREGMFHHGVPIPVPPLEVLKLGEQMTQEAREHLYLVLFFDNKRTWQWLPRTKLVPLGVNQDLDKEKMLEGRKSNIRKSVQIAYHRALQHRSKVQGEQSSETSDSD
In words: Inhibition of BRPF1 (unknown origin) measured alphascreen assay. Background: Bead proximity is the source of the signal in Alpha formats.

The test system of data set [10] is LNCaP C4-2B. The experiment in a line: Inhibition of clonogenicity in human LNCaP C4-2B cells assessed as reduction in colony formation at 1 uM measured by crystal violet staining based analysis. In kind it is functional.
Data set [11] concerns CWR22R. The experiment in a line: Inhibition of clonogenicity in human 22Rv1 cells assessed as reduction in colony formation at 1 uM measured by crystal violet staining based analysis. The data set is classed as functional.
For data set [12], the system named is CWR22R. In words: Downregulation of full-length AR mRNA expression in human 22Rv1 cells at 5 uM measured by RT-PCR analysis. In kind it is functional, cell-based.
The subject of data set [13] is CWR22R. In words: Downregulation of AR-V7 mRNA expression in human 22Rv1 cells at 5 uM measured by RT-PCR analysis. The data set is classed as functional, cell-based.
Data set [14] has as its system CWR22R. In words: Downregulation of PSA mRNA expression in human 22Rv1 cells at 5 uM measured by RT-PCR analysis. The data set is classed as functional, cell-based.
For data set [15], the system named is CWR22R. In words: Downregulation of KLK2 mRNA expression in human 22Rv1 cells at 5 uM measured by RT-PCR analysis. The data set is classed as functional, cell-based.
The test system of data set [16] is CWR22R. The experiment in a line: Downregulation of TMPRSS2 mRNA expression in human 22Rv1 cells at 5 uM measured by RT-PCR analysis. The data set is classed as functional, cell-based.
Data set [17] concerns CWR22R. In words: Downregulation of C-MYC mRNA expression in human 22Rv1 cells at 5 uM measured by RT-PCR analysis. The data set is classed as functional, cell-based.
The test system of data set [18] is LNCaP. The experiment in a line: Suppression of PSA gene expression in human LNCaP cells assessed as mRNA level at 0.4 to 10 uM measured by luciferase gene reporter assay. The data set is classed as functional, cell-based. The note with it: dose 0.4-10 µM.
For data set [19], the system named is CWR22R. The experiment in a line: Antitumor activity against human 22Rv1 cells xenografted in […] mouse assessed as tumor growth inhibition at 50 mg/kg, ip administered once daily for 21 days. The note with it: 22Rv1, 504 h, time 21 day, read-out: TGI. The data set is classed as functional.
Data set [20] in a line: Toxicity in […] mouse xenografted with human 22Rv1 cells assessed as body weight loss at 50 mg/kg, ip administered once daily for 21 days. To be noted: in vivo, 504 h, time 21 day. In kind it is organism-based, CWR22R.
Data set [21] in a line: Apparent permeability of the compound across apical to basolateral side in human Caco-2 cells at 10 uM incubated for 120 mins and measured by LC-MS/MS analysis.

The source made the active and inactive calls. No cut-off for these calls is given here.

This note sets out measurements from ChEMBL document CHEMBL5154837, “Discovery, optimization and evaluation of 1-(indolin-1-yl)ethan-1-ones as novel selective TRIM24/BRPF1 bromodomain inhibitors” (Eur J Med Chem, 2022).

For `CCCOc1cc(OCCCCN(C)C)cc(Oc2cc3c(cc2NS(=O)(=O)c2ccc(OC)c(OC)c2)n(C)c(=O)n3C)c1`, the values for the IC50 in data set [1], in [2] and in [3] were 13.6 µM, 12.2 µM and 10.8 µM, respectively.
As for `COc1cccc(NS(=O)(=O)c2ccc3c(c2)CCN3C(C)=O)c1`, in data set [4], it took 38.4 µM to reach half-maximal inhibition (IC50).
In the case of `C[C@H]1O[C@@H](O[C@H]2[C@@H](O)C[C@H](O[C@H]3[C@@H](O)C[C@H](O[C@H]4CC[C@@]5(C)[C@H](CC[C@@H]6[C@@H]5C[C@@H](O)[C@]5(C)[C@@H](C7=CC(=O)OC7)CC[C@]65O)C4)O[C@@H]3C)O[C@@H]2C)C[C@H](O)[C@@H]1O` [DIGOXIN], the basolateral-to-apical permeability (Papp B→A) at 2 h, 10 µM in [5] was 8.97 ×10⁻⁶ cm/s. For the same compound, the efflux ratio at 2 h, 10 µM in data set [6] was found to be 9.69. Also, the recovery at 2 h, 10 µM in data set [7] was found to be 88.8%; in data set [8], 98.6%.
For `CC(C)NCC(O)COc1ccc(CC(N)=O)cc1` (stereo not given) [ATENOLOL], the recovery at 2 h, 10 µM in data set [7] came out at 92.7%; in data set [8], 92.3%.
In the case of `COc1ccc(C2CC2)cc1S(=O)(=O)Nc1ccc2c(c1)CCN2C(C)=O`, the IC50 worked out at 0.98 µM in [4]; 1.16 µM in [9]; 0.78 µM in [1]; 1.07 µM in data set [2]; 0.82 µM in [3]. Also, the inhibition at 1 µM in data set [10] and in data set [11] was below 5% in each case. Besides, the result in [12], in data set [13], in data set [14], in data set [15], in [16] and in [17] was Active. Besides, the outcome in data set [18] was Active. The inhibition in vivo at 50 mg/kg in [19] stood at 53%. Further, the Activity result in data set [20] is “Non-Toxic”.
As for `CC(C)NCC(O)COc1cccc2ccccc12` (stereo not given) [PROPRANOLOL], in data set [21], the Papp A→B at 2 h, 10 µM came out at 22.1 ×10⁻⁶ cm/s. The Papp B→A at 2 h, 10 µM in data set [5] worked out at 20.9 ×10⁻⁶ cm/s. Besides, the recovery at 2 h, 10 µM came to 78.5% in data set [7] and 99.2% in data set [8].

The term IC50 denotes the midpoint of a concentration-inhibition curve. Higher therefore signals lower potency. Broadly, the Papp B→A is how fast a substance crosses the layer from the basolateral side. For orientation: efflux ratio means the permeability from basolateral to apical divided by that in the opposite direction, in the common usage. As usually defined, the inhibition is the percentage by which the read-out fell short of the control. In general, Papp A→B refers to the apparent permeability from the apical to the basolateral side of a cell layer.
